# Laboratory results reported in patent US20100056570A1, “FUNGICIDES” (Syngenta Crop Protection, Inc., priority 2006, published 2010).
row,Compound,melting point
1,"CSC(Oc1cc2cc(Br)cnc2cc1Cl)C(=O)NC(C)(C)C (stereo not drawn) [12 (2), 2-(3-Bromo-7-chloro-quinolin-6-yloxy)-N-tert-butyl-2-methylsulfanyl-acetamide]",172 to 174 °C
2,"CSC(Oc1cc2cc(Br)cnc2cc1F)C(=O)NC(C)(C)C (stereo not drawn) [12 (6), 2-(3-Bromo-7-fluoro-quinolin-6-yloxy)-N-tert-butyl-2-methylsulfanyl-acetamide]",144 to 145 °C
3,"CSC(Oc1cc2cc(I)cnc2cc1F)C(=O)NC(C)(C)C (stereo not drawn) [12 (7), 2-(3-iodo-7-fluoro-quinolin-6-yloxy)-N-tert-butyl-2-methylsulfanyl-acetamide]",165 to 166 °C
4,"CSC(Oc1cc2cc(Br)cnc2cc1C)C(=O)NC(C)(C)C (stereo not drawn) [12 (13), 2-(3-Bromo-7-methyl-quinolin-6-yloxy)-N-tert-butyl-2-methylsulfanyl-acetamide]",132 to 134 °C
5,"CSC(Oc1cc2cc(-c3ccsc3)cnc2cc1F)C(=O)NC(C)(C)C (stereo not drawn) [12 (30), N-tert-butyl-2-(7-fluoro-3-thiophen-3-yl-quinolin-6-yloxy)-2-methylsulfanyl-acetamide]",170 to 173 °C
6,"COCC#CC(C)(C)NC(=O)C(C)(S)Oc1cc2cc(-c3ccsc3)cnc2cc1F (stereo not drawn) [251 (30), 2-(7-Fluoro-3-thiophen-3-yl-quinolin-6-yloxy)-N-(4-methoxy-1,1-dimethyl-but-2-ynyl)-2-methyl-sulfanyl-acetamide]",132 to 134 °C
